Results taken from article PMC6009956, “Design, synthesis and biological activity of N^4-phenylsubstituted-7H-pyrrolo[2,3-d]pyrimidin-4-amines as dual inhibitors of aurora kinase A and epidermal growth factor receptor kinase” (Journal of Enzyme Inhibition and Medicinal Chemistry, 2017).
Where two headings read alike, the source gives them in different places.

Experiments:
aurora A kinase (AURKA) = target: T1, aurora A kinase (AURKA) (Homo sapiens, UniProt O14965); experiment: ADP-Glo kinase assay, Aurora A; format: biochemical
T1 construct: purchased BPS Bioscience (assay run externally by the vendor)
T1 sequence (O14965 1-403): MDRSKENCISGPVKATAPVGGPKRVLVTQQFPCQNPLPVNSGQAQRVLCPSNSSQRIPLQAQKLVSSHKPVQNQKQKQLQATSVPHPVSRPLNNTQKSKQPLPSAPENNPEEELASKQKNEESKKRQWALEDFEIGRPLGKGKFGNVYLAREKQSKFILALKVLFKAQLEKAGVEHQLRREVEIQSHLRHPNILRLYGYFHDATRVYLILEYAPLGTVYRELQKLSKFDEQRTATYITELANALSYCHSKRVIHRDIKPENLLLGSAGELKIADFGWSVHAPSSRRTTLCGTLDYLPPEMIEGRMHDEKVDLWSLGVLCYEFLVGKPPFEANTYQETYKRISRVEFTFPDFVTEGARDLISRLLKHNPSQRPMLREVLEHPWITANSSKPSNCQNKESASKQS

AURKB = target: T2, AURKB (Homo sapiens, UniProt Q96GD4); experiment: DiscoverX competition binding assay, AURKB; details: read-out: Binding constant (Kd) AURKB
T2 construct: purchased DiscoverX Corporation (assay run externally by the vendor)
Method: The assay was performed externally at DiscoverX Corporation using a competition binding assay that quantitatively measures the ability of a compound to compete with an immobilised, active-site directed ligand[24]. The assay is performed by combining three components: DNA-tagged kinase, immobilised ligand and a test compound. The ability of the test compound to compete with the immobilised ligand was measured via quantitative PCR of the DNA tag. An 11-point 3-fold serial dilution of each test compound was prepared in 100% of DMSO at 100× final test concentration and subsequently diluted to 1× in the assay (final DMSO concentration = 1%). […] Binding constants (Kd) were calculated with a standard dose-response curve using the Hill equation.
Binding Affinities for EGFR, AURKA and AURKB
The assay was performed externally at DiscoverX Corporation using a competition binding assay that quantitatively measures the ability of a compound to compete with an immobilized, active-site directed ligand for target kinases AURKA, AURKB and EGFR.23 The assay is performed by combining three components: DNA-tagged kinase; immobilized ligand; and a test compound. The ability of the test compound to compete with the immobilized ligand was measured via quantitative PCR of the DNA tag. […] Compound Kds were determined using a compound top […]

[1] = test system: Phosphorylated histone H3 (p-HH3) in BHY and FADU SCCHN cell lines; experiment: Western blot of p-HH3 in BHY and FADU cells; format: cell-based; details: 100 μM
Method: Protein extracts (50 μg per lane) were electrophoretically separated on SDS-PAGE gels, transferred to membranes (Protran, Schleicher & Schuell, Dassel, Germany) and blotted with specific antibodies (actin, aurora A, aurora B: all from Sigma, Munich, Germany; S10-HH3: Millipore, Schwalbach, Germany; EGFR: Santa Cruz, Heidelberg, Germany; pEGFR: Invitrogen, Darmstadt, Germany; pAKT, pERK: both from New England Biolabs, Frankfurt, Germany).
Figure 4. Effects of compound 2 on EGFR and aurora kinases in growing SCCHN cell lines (A) Western blot analysis of EGFR (pEGFR, pERK, p-AKT) and aurora A (p-HH3) downstream target proteins following incubation with 100 μM compound 2 for the indicated time points in BHY and FADU SCCHN cell lines. (B) BHY and CAL cell lines treated for the indicated time points with 200 nM cetuximab. Western blot analysis of EGFR downstream targets. (long exposure and short exposure). […] Western blot analysis of p-HH3 at the indicated time points. Asterisk (*) represents unspecific band.

FADU and BHY cell lines = experiment: Cell cycle analysis (PI, flow cytometry); format: cell-based; details: 100 μM, 24 and 48 h; more pronounced in BHY
Method: For analysis of cell cycle distribution, cells were fixed with 70% of ethanol and stained with PI. Flow cytometric analysis of DNA content was performed using PI in the FL2 chanel in linear mode. Cells with less than diploid DNA content were considered dead (sub-G1).
Figure 5. Cell cycle analysis of FADU and BHY cell lines incubated for 24 and 48 h with 100 μM of compound 2. Cell cycle distribution according to PI uptake, shown is the cell fraction subG1 for cell death and in G1, S and G2M phase of the cell cycle. n = 3, * p < .01, ** p < .001.

T2 sequence (Q96GD4 whole entry): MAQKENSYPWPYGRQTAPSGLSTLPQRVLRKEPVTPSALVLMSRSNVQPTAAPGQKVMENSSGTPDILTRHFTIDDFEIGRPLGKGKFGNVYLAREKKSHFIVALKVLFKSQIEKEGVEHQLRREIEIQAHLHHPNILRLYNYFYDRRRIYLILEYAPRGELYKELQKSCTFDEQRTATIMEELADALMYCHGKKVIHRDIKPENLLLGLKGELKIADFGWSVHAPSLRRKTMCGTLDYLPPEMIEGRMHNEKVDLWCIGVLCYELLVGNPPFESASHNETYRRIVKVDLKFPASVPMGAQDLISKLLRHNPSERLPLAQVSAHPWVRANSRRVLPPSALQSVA

## Brc1cccc(Nc2ncnc3[nH]ccc23)c1 [Compound 2, N^4-(3-bromophenyl)-7H-pyrrolo[2,3-d]pyrimidine-4-amine]
Aurora A kinase (AURKA); 10 µM ATP, triplicate, read-out: AURKA IC50 ± SD
  IC50: 1990 ± 50 nM
Aurora A kinase (AURKA); 10 µM ATP/0.2 mg/ml Kemptide, read-out: Aurora A IC50 (dose-response curve, supplement)
  IC50: 2000 nM
Aurora A kinase (AURKA); Log[nM] 0
  Aurora A % Activity Set1: 107%
  Aurora A % Activity Set2: 94%
  Aurora A % Activity Set3: 94%
Aurora A kinase (AURKA); Log[nM] 1.0
  Aurora A % Activity Set1: 109%
  Aurora A % Activity Set2: 97%
  Aurora A % Activity Set3: 96%
Aurora A kinase (AURKA); Log[nM] 1.5
  Aurora A % Activity Set1: 109%
  Aurora A % Activity Set2: 96%
  Aurora A % Activity Set3: 101%
Aurora A kinase (AURKA); Log[nM] 2.0
  Aurora A % Activity Set1: 102%
  Aurora A % Activity Set2: 97%
  Aurora A % Activity Set3: 105%
Aurora A kinase (AURKA); Log[nM] 2.5
  Aurora A % Activity Set1: 94%
  Aurora A % Activity Set2: 88%
  Aurora A % Activity Set3: 95%
Aurora A kinase (AURKA); Log[nM] 3.0
  Aurora A % Activity Set1: 70%
  Aurora A % Activity Set2: 66%
  Aurora A % Activity Set3: 69%
Aurora A kinase (AURKA); Log[nM] 3.5
  Aurora A % Activity Set1: 35%
  Aurora A % Activity Set2: 34%
  Aurora A % Activity Set3: 34%
Aurora A kinase (AURKA); Log[nM] 4.0
  Aurora A % Activity Set1: 16%
  Aurora A % Activity Set2: 14%
  Aurora A % Activity Set3: 14%
Aurora A kinase (AURKA); Log[nM] 4.5
  Aurora A % Activity Set1: 6%
  Aurora A % Activity Set2: 5%
  Aurora A % Activity Set3: 5%
Aurora A kinase (AURKA); Log[nM] 5.0
  Aurora A % Activity Set1: 5%
  Aurora A % Activity Set2: 5%
  Aurora A % Activity Set3: 5%
AURKB
  Kd: 4.8 µM
[1]
  Effect on histone p-HH3: Modest effects
FADU and BHY cell lines
  Cell cycle distribution: cell cycle arrest in G2M
